Laboratory results published in patent publication US20250313535A1, “ALPHA 4 BETA 7 INTEGRIN MODULATORS AND USES THEREOF” (DICE MOLECULES SV, INC., priority 2022, published 2025).
Read-outs that look alike come from different tables or passages of the source.

How the values were obtained:
α4β1 integrin = α4β1 integrin (Homo sapiens (Human), UniProt P05556+P13612); assay: Integrin Adhesion Assay: Protocol 5 (VCAM-coated plate, RPMI-8866 cells with stable LOF mutation of the ITGB7 gene); assay type: cell-based
In short: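 RPMI-8866 B cells with CRISPR/Cas9 ITGB7 knockout (clonal, verified by flow cytometry) adhered to VCAM-coated wells for 1 h at 37° C in HEPES/NaCl buffer with 1 mM MnCl2, 0.1 mM CaCl2, 1% BSA, 1% DMSO. Bound cells quantified by CellTiter-Glo luminescence after washing; % inhibition versus DMSO and control, 4-parameter fit.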

α4β7 integrin = α4β7 integrin (Homo sapiens (Human), UniProt P13612+P26010); assay: Integrin Adhesion Assay: Protocol 4 (MAdCAM-coated plate, RPMI-8866 cells with stable LOF mutation of the ITGB1 gene); assay type: cell-based
In short: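 RPMI-8866 cells with CRISPR/Cas9 knockout of ITGB1 (2×10^6/mL) were added to MAdCAM-coated wells with compound (1% DMSO) in HEPES/NaCl buffer with 1 mM MnCl2, 0.1 mM CaCl2 and 1% BSA, then incubated 1 h at 37 °C. After four washes, adherent cells were quantified by CellTiter-Glo luminescence. Percent inhibition versus DMSO and control compound was fitted to 4-parameter curves.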

[1] = Protocol 5, RPMI-8866 cells with LOF mutation of ITGB7, VCAM, read-out: Mean IC50 α4β1 KO
[2] = Protocol 4, RPMI-8866 cells with LOF mutation of ITGB1, MAdCAM, read-out: Mean IC50 α4β7 KO
[3] = RPMI-8866 cells with stable LOF mutation of the ITGB7 gene, read-out: Mean IC50 α4β1 KO^b
[4] = RPMI-8866 cells with stable LOF mutation of the ITGB1 gene, read-out: Mean IC50 α4β7 KO^a

Chain of α4β7 integrin (P13612 34-1032): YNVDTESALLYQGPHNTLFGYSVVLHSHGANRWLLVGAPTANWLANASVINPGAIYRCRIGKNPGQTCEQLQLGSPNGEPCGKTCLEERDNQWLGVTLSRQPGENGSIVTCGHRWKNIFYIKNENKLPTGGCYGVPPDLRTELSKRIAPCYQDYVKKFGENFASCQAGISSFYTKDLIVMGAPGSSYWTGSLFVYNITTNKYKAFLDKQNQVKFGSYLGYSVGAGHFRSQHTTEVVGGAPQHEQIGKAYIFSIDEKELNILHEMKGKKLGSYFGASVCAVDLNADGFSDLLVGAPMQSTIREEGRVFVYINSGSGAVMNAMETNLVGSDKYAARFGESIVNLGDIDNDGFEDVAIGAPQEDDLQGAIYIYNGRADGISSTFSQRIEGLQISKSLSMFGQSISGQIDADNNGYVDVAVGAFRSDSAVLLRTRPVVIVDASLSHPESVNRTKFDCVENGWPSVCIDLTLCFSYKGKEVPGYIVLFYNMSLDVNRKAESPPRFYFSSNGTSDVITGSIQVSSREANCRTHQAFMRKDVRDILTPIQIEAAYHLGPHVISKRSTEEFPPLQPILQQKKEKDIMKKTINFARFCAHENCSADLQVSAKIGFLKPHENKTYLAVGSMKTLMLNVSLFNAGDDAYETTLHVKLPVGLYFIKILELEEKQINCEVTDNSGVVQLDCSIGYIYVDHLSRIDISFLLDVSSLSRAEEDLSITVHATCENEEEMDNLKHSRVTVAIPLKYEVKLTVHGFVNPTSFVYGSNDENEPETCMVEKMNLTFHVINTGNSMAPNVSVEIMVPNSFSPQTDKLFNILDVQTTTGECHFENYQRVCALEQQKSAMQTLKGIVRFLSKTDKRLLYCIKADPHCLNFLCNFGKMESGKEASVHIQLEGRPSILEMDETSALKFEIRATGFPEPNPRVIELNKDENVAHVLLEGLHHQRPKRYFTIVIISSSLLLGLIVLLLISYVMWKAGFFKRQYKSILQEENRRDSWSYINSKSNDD
Chain of α4β7 integrin (P26010 20-798): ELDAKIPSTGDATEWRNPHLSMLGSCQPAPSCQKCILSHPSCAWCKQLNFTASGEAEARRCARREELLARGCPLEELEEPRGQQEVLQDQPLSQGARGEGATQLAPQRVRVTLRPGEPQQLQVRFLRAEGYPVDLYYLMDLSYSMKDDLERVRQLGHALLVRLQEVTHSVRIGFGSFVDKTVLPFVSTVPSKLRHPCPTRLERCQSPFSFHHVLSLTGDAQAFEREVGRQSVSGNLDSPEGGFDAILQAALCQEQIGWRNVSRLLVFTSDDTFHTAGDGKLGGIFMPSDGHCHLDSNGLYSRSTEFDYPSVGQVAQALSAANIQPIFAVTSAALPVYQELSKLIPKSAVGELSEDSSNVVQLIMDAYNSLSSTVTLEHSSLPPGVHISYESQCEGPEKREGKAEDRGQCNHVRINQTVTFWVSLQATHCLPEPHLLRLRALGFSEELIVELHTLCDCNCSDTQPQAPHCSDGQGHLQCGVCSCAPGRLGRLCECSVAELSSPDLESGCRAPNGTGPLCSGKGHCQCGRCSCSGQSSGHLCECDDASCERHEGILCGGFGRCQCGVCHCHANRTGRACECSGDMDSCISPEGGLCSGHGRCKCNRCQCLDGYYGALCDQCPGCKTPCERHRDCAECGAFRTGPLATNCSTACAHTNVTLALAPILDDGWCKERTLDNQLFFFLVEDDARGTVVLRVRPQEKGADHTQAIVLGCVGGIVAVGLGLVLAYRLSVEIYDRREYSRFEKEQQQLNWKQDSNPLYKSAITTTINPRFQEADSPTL
Chain of α4β1 integrin (P13612 34-1032): as the sequence (P13612 34-1032) above
Chain of α4β1 integrin (P05556 21-798): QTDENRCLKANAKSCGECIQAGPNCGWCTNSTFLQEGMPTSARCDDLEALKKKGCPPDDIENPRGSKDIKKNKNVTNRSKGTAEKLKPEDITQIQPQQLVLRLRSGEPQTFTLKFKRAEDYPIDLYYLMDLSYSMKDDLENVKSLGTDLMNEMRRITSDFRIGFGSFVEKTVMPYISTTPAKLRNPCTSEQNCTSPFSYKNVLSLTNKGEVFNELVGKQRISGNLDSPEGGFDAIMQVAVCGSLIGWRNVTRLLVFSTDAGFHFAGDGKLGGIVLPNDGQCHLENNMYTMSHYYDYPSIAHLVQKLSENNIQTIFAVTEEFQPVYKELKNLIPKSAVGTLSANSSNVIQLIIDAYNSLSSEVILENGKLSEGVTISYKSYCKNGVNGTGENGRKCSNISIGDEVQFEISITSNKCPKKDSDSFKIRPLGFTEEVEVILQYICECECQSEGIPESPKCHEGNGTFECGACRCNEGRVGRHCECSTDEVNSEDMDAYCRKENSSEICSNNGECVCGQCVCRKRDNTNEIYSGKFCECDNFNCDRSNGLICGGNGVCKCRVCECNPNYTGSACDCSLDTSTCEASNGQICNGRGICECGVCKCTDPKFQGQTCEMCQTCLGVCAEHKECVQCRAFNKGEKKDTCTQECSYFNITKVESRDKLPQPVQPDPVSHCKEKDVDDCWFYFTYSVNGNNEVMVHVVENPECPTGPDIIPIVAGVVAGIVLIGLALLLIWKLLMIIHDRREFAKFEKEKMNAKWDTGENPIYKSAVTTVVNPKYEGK

SMILES | IC50 (α4β1 integrin; [1]) [nM] | IC50 (α4β7 integrin; [2]) [nM] | IC50 (α4β1 integrin; [3]) [nM] | IC50 (α4β7 integrin; [4]) [nM]
O=C(O)[C@H](Cc1cccc2c(-c3ncc(CN4CCC5(CCC5)C4)c4ccccc34)cccc12)NC(=O)C1(C(F)(F)F)CCN(CC(F)(F)F)CC1 [Compound 886] | > 1000 | < 10 |  | 
COc1cc(CN2CCC[C@H](F)C2)cc(C(F)(F)F)c1-c1cccc2c(C[C@H](NC(=O)C3(C(F)(F)F)CCN(CC(F)(F)F)CC3)C(=O)O)cccc12 [Compound 848] | > 1000 | 10 to 100 |  | 
COC(=O)[C@H](Cc1cccc2c(-c3nc(CN4CCCCC4)cc4ccncc34)cccc12)NC(=O)C1(C(F)(F)F)CCN(CC(F)(F)F)CC1 [Compound 994] | > 1000 | 10 to 100 |  | 
CC1(C)CCN(Cc2cnc(-c3cccc4c(C[C@H](NC(=O)C5(C(F)(F)F)CCN(CC(F)F)CC5)C(=O)O)cccc34)c3ccccc23)CC1 [Compound 861] | 100 to 1000 | < 10 |  | 
COc1cccc(CCN2CCC[C@H](F)C2)c1-c1cccc2c(C[C@H](NC(=O)C3(C(F)(F)F)CCN(CC(F)F)CC3)C(=O)O)cccc12 [Compound 969] | > 1000 | < 10 |  | 
COc1cc(CCN2CCCCC2)ccc1-c1cccc2c(C[C@H](NC(=O)C3(C(F)(F)F)CCN(CC(F)(F)F)CC3)C(=O)O)cccc12 [Compound 963] | 100 to 1000 | < 10 |  | 
C[C@@H]1CN(Cc2cnc(-c3cccc4c(C[C@H](NC(=O)C5(C(F)(F)F)CCN(CC(F)(F)F)CC5)C(=O)O)cccc34)c3ccccc23)C[C@H](C)O1 [Compound 863] | > 1000 | 10 to 100 |  | 
CC1CCN(Cc2ccc3c(c2)c(C(F)(F)F)c(-c2cccc4c(C[C@H](NC(=O)C5(C(F)(F)F)CCN(CC(F)(F)F)CC5)C(=O)O)cccc24)c(=O)n3C)CCC1(F)F (stereo partly drawn) [Compound 839] | 100 to 1000 | 10 to 100 |  | 
COc1cc(C(F)(F)F)cc(CN2CCCCC2)c1-c1cccc2c(C[C@H](NC(=O)c3c(C)cccc3F)C(=O)O)cccc12 [Compound 1009] | > 1000 | < 10 |  | 
COc1cnc(CN2CCC(C)C(F)(F)CC2)cc1-c1cccc2c(C[C@H](NC(=O)C3(C(F)(F)F)CCN(CC(F)(F)F)CC3)C(=O)O)cccc12 (stereo partly drawn) [Compound 843] | > 1000 | < 10 |  | 
CC1(C(=O)N[C@@H](Cc2cccc3c(-c4ncc(CN5CCCCC5)c5ccccc45)cccc23)C(=O)O)CC2CCC(C1)N2CC(F)F (stereo partly drawn) [Compound 684] |  |  | > 1000 | 10 to 100
COc1ccc(CN2CCC(F)CC2)c(OC)c1-c1cccc2c(C[C@H](NC(=O)c3c(C)cccc3F)C(=O)O)cccc12 [Compound 624] |  |  | 100 to 1000 | < 10
Cn1c(=O)c(-c2cccc3c(C[C@H](NC(=O)C4(C(F)(F)F)CCN([C@H]5CCC(F)(F)C5)CC4)C(=O)O)cccc23)c(C(F)(F)F)c2ccccc21 (single isomer, unassigned) [Compound 495] |  |  | > 1000 | 10 to 100
COc1ccc(CN2CCC(F)(F)CC2)c(OC)c1-c1cccc2c(C[C@H](NC(=O)C3(C(F)(F)F)CCN([C@@H]4COC[C@H]4F)CC3)C(=O)O)cccc12 [Compound 670] |  |  | 100 to 1000 | 10 to 100
CCc1cccc(F)c1C(=O)N[C@@H](Cc1cccc2c(-c3c(OC)ccc(CN4CCCCC4)c3OC)cccc12)C(=O)O [Compound 649] |  |  | 100 to 1000 | < 10
Cn1c(=O)c(-c2cccc3c(C[C@H](NC(=O)c4c(F)cccc4CN4CCC(C)(C)C4)C(=O)O)cccc23)c(C(F)(F)F)c2ccccc21 [Compound 487] |  |  | > 1000 | 10 to 100
CN(C)Cc1cc(-c2cccc3c(C[C@H](NC(=O)c4c(F)cc(N5CCOC[C@@H]5C(F)(F)F)cc4CN4CCCC4)C(=O)O)cccc23)c2cnccc2c1 [Compound 587] |  |  | > 1000 | < 10
COc1ccc(CN2CCCC(F)(F)CC2)c(OC)c1-c1cccc2c(C[C@H](NC(=O)c3c(C)cccc3F)C(=O)O)cccc12 [Compound 653] |  |  | 100 to 1000 | < 10
COc1cc(CN2CCC(C(F)(F)F)CC2)cnc1-c1cccc2c(C[C@H](NC(=O)C3(C(F)(F)F)CCN(CC(F)F)CC3)C(=O)O)cccc12 [Compound 925] | > 1000 | < 10 |  | 
O=C(O)[C@H](Cc1cccc2c(-c3ncc(CCN4CCC(F)(F)CC4)c4ccccc34)cccc12)NC(=O)C1(C(F)(F)F)CCN(CC(F)(F)F)CC1 [Compound 980] | > 1000 | 10 to 100 |  | 

SMILES | IC50 (α4β1 integrin; [1]) [nM] | IC50 (α4β7 integrin; [2]) [nM] | IC50 (α4β1 integrin; [3]) [nM] | IC50 (α4β7 integrin; [4]) [nM]
COc1ccc(CN2CCCCC2(C)C)c(OC)c1-c1cccc2c(C[C@H](NC(=O)c3c(C)cccc3F)C(=O)O)cccc12 [Compound 630] |  |  | 100 to 1000 | < 10
COc1cccc(CCN2CCC(C)C(F)(F)CC2)c1-c1cccc2c(C[C@H](NC(=O)C3(C(F)(F)F)CCN(CC(F)F)CC3)C(=O)O)cccc12 (stereo partly drawn) [Compound 971] | 100 to 1000 | < 10 |  | 
O=C(O)[C@H](Cc1cccc2c(-c3ncc(CN4CC5CCC(C4)O5)c4ccccc34)cccc12)NC(=O)C1(C(F)(F)F)CCN(CC(F)(F)F)CC1 [Compound 872] | > 1000 | 10 to 100 |  | 
Cn1c(=O)c(-c2cccc3c(C[C@H](NC(=O)C4(C(F)(F)F)CCN(C5COC5)CC4)C(=O)O)cccc23)c(C(F)(F)F)c2ccccc21 [Compound 432] |  |  | 10 to 100 | < 10
COc1ccc(CN2CCC(F)(F)CC2)c(OC)c1-c1cccc2c(C[C@H](NC(=O)C3(C(F)(F)F)CCN([C@H]4COC[C@H]4F)CC3)C(=O)O)cccc12 [Compound 573] |  |  | > 1000 | < 10
O=C(O)[C@H](Cc1cccc2c(-c3ncc(CN4CCCC5(CC5)C4)c4ccccc34)cccc12)NC(=O)C1(C(F)(F)F)CCN(CC(F)(F)F)CC1 [Compound 904] | 100 to 1000 | < 10 |  | 
COc1c(CN2CCCCC2)ccc(Cl)c1-c1cccc2c(C[C@H](NC(=O)c3c(C)cccc3F)C(=O)O)cccc12 [Compound 1013] | 100 to 1000 | < 10 |  | 
Cc1c(CCN2CCCCC2)ccnc1-c1cccc2c(C[C@H](NC(=O)C3(C(F)(F)F)CCN(CC(F)(F)F)CC3)C(=O)O)cccc12 [Compound 717] | 100 to 1000 | < 10 |  | 
O=C(O)[C@H](Cc1cccc2c(-c3nccc4ccc(CCN5CCCCC5)cc34)cccc12)NC(=O)C1(C(F)(F)F)CCN(CC(F)(F)F)CC1 [Compound 718] | > 1000 | < 10 |  | 
COc1ccc(CN2CCC(C)(C)CC2)cc1-c1cccc2c(C[C@H](NC(=O)C3(C(F)(F)F)CCN(CC(F)F)CC3)C(=O)O)cccc12 [Compound 942] | 100 to 1000 | < 10 |  | 
Cn1c(=O)c(-c2cccc3c(C[C@H](NC(=O)C4(C(F)(F)F)CCN(CC(F)F)CC4)C(=O)O)cccc23)c(C(F)(F)F)c2cc(CN3CCC(c4ccccc4)CC3)ccc21 [Compound 838] | 10 to 100 | < 10 |  | 
COc1ccc(CN2CCC3(CC2)CC3)c(OC)c1-c1cccc2c(C[C@H](NC(=O)c3c(C)cccc3F)C(=O)O)cccc12 [Compound 623] |  |  | 100 to 1000 | < 10
COc1ccc(CN2CCCCC2)cc1-c1cccc2c(C[C@H](NC(=O)c3c(C)cccc3F)C(=O)O)cccc12 [Compound 667] |  |  | > 1000 | 10 to 100
COc1cc2c(c(OC)c1-c1cccc3c(C[C@H](NC(=O)c4c(C)cccc4F)C(=O)O)cccc13)CN(CC(F)(F)F)CC2 [Compound 475] |  |  | 100 to 1000 | < 10
O=C(O)[C@H](Cc1cccc2c(-c3nccc4c(CN5CCC(F)CC5)cccc34)cccc12)NC(=O)C1(C(F)(F)F)CCN(CC(F)(F)F)CC1 [Compound 560] |  |  | > 1000 | < 10
CN(C)Cc1cc(-c2cccc3c(C[C@H](NC(=O)C4(C(F)(F)F)CCN(CC(F)(F)F)CC4)C(=O)O)cccc23)c2cnccc2c1 [Compound 618] |  |  | > 1000 | 10 to 100
CCOCc1cc(OC)c(-c2cccc3c(C[C@H](NC(=O)C4(C(F)(F)F)CCN(CC(F)(F)F)CC4)C(=O)O)cccc23)c(OC)c1 [Compound 430] |  |  | 100 to 1000 | < 10
COc1ccc(CN2CCC(F)CC2)cc1-c1cccc2c(C[C@H](NC(=O)C3(C(F)(F)F)CCN(CC(F)F)CC3)C(=O)O)cccc12 [Compound 940] | 100 to 1000 | < 10 |  | 
COc1cc2c(c(OC)c1-c1cccc3c(C[C@H](NC(=O)c4c(C)cccc4F)C(=O)O)cccc13)CN(C)CC2 [Compound 473] |  |  | 100 to 1000 | < 10
